The results in this text go back to ChEMBL document CHEMBL1144368, “Synthesis of 15R-PGD2: a potential DP2 receptor agonist” (Bioorg Med Chem Lett, 2005).

Common to all, as to format: functional
The target of assay [1] is T1, Prostaglandin D2 receptor 2 (Homo sapiens, UniProt Q9Y5Y4).
T1 sequence (Q9Y5Y4 whole entry): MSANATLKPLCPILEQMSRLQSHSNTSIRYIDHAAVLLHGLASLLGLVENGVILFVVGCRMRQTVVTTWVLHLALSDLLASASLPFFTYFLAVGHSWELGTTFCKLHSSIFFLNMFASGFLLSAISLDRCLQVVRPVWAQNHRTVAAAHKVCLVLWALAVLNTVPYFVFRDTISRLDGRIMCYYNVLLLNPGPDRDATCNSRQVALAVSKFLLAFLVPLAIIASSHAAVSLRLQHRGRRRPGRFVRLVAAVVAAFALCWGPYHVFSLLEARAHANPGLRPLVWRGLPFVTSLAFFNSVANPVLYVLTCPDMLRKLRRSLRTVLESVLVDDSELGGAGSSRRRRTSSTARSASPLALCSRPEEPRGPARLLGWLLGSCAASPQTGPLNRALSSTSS
Description: Effective concentration for DP2 mediated stimulation of actin polymerization in eosinophils.

The target of assay [2] is T1, Prostaglandin D2 receptor 2. Nature of the assay: Effective concentration DP2 mediated expression of the adhesion molecule CD11b in eosinophils.
Assay [3] deals with T2, Prostaglandin D2 receptor (Homo sapiens) (UniProt Q13258).
T2 sequence (whole entry): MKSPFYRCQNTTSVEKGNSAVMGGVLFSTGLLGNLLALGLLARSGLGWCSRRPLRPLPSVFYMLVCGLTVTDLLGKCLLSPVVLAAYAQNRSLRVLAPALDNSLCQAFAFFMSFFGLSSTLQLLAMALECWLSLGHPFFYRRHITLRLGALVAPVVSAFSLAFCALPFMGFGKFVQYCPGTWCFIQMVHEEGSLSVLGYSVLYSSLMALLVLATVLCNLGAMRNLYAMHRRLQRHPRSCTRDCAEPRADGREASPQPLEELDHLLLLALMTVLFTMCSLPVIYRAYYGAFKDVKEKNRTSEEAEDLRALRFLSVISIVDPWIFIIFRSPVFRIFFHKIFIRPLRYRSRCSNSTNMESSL
Nature of the assay: Effective concentration for DP1 mediated cAMP formation in platelets. A general note: Cyclic AMP is a second messenger, typically raised through Gs and lowered through Gi signalling.

Assay [4] addresses T2, Prostaglandin D2 receptor (Homo sapiens). Nature of the assay: Effective concentration for DP1 mediated cAMP formation in platelets was determined at 1 uM.
Assay [5] addresses T3, Prostaglandin D2 receptor 2 (Homo sapiens) (UniProt Q9Y5Y4).
T3 sequence (whole entry): T1 sequence (Q9Y5Y4 whole entry)
Nature of the assay: Percentage for DP2 mediated stimulation of actin polymerization in eosinophils was determined at 1 uM; (above control).

Structures are written as SMILES. Some results are limits rather than exact numbers.

For `CCCCC[C@@](C)(O)/C=C/[C@H]1C(=O)C[C@H](O)[C@@H]1C/C=C/CCCC(=O)O`, the EC50 in assay [1] was 0.0038 µM; in assay [2], 0.0014 µM. The EC10 in assay [3] was greater than 10 µM.

With `CCCCC[C@](C)(O)/C=C/[C@H]1C(=O)C[C@H](O)[C@@H]1C/C=C/CCCC(=O)O`, the figures for the EC50 in assay [1] and in assay [2] were 0.333 µM and 0.099 µM, respectively. The 10% effect level in assay [3] (EC10) was put at 2.1 µM.

As for `CCCCC[C@H](O)/C=C/[C@H]1C(=O)C[C@H](O)[C@@H]1CC=CCCCC(=O)O` [[3H]PGD2], the Activity amounted to 15.5 pmol in assay [4] and 86.2% in assay [5]. The EC50 in assay [1] is 0.013 µM; in assay [2], 0.007 µM. Besides, in assay [3], it took 0.011 µM to reach the 10% level (EC10).

`CCCCC[C@@H](O)/C=C/[C@H]1C(=O)C[C@H](O)[C@@H]1C/C=C/CCCC(=O)O`: the Activity in assay [4] turned out to be 0.83 pmol; in assay [5] it was 83.8%.

By EC50 is commonly meant the concentration needed to bring the measured effect to its halfway point. Low readings indicate an effect from little substance, high ones a need for much substance. By EC10 is commonly meant the point of the concentration-response curve where the effect stands at 10%. Read a low EC10 as an effect from little substance.
